Experimental data published in ChEMBL document CHEMBL1140006, “2-Cycloalkyl phenoxyacetic acid CRTh2 receptor antagonists” (Bioorg Med Chem Lett, 2007).
Active and inactive are the calls of the source. No cut-off for these calls is given here.

What was measured:
[1] = biological target: T1, Prostaglandin D2 receptor 2 (Homo sapiens, UniProt Q9Y5Y4); assay: Displacement of […] from human CRTh2 receptor expressed in CHO cells; format: cell-based
T1 sequence (Q9Y5Y4 whole entry): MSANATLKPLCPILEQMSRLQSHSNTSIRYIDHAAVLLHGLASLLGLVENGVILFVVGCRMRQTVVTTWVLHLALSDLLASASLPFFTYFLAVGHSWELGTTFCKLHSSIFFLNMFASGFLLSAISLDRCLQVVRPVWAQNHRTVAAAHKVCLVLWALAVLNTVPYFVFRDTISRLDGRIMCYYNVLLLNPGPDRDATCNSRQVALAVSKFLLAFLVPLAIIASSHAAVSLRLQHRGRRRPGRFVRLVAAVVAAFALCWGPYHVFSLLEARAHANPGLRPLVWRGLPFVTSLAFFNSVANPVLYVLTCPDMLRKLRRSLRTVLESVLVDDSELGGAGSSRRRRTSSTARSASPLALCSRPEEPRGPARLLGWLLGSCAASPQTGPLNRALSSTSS

[2] = biological target: T2, Prostaglandin D2 receptor (Homo sapiens, UniProt Q13258); assay: Binding affinity at prostanoid DP receptor
T2 sequence (Q13258 whole entry): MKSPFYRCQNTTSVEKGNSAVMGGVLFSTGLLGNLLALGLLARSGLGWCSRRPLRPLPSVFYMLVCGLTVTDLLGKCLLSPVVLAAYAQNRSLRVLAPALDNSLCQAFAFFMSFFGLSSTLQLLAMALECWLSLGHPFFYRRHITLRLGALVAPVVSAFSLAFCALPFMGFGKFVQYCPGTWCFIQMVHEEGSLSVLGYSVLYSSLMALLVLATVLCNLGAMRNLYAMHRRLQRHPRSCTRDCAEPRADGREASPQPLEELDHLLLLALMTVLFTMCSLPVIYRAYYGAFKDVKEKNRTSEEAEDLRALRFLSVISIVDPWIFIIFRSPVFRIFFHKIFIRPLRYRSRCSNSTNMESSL

Eosinophil [3] = assay: Inhibition of 13,14-dihydro-15-ketoprostaglandin D2-stimulated human eosinophils shape change; format: functional, cell-based
Eosinophil [4] = assay: Inhibition of 13,14-dihydro-15-ketoprostaglandin D2-stimulated human eosinophils shape change upto 10 uM; format: functional, cell-based
[5] = Clearance in rat; format: ADME, organism-based; details: in vivo
[6] = Permeability from apical to basolateral side of Caco-2 cell membrane; format: ADME, cell-based; details: human, read-out: permeability
[7] = Oral bioavailability in rat at 2 mg/kg; format: ADME, organism-based; details: in vivo
Cytochrome P450 3A4 = Cytochrome P450 3A4 (Homo sapiens, UniProt P08684); assay: Inhibition of CYP3A4; format: ADME
Cytochrome P450 2C19 = Cytochrome P450 2C19 (Homo sapiens, UniProt P33261); assay: Inhibition of CYP2C19; format: ADME
[8] = Half life in rat at 0.5 mg/kg, iv; format: ADME, organism-based; set-up: dose 0.5 mg/kg, route intravenous; details: in vivo
[9] = Volume of distribution at steady state in rat; format: ADME, organism-based; details: in vivo, read-out: Vdss
[10] = Intrinsic clearance in human microsomes; format: ADME, Microsome
[11] = Cmax in rat; format: ADME, organism-based; details: in vivo
Cytochrome P450 2D6 = Cytochrome P450 2D6 (Homo sapiens, UniProt P10635); assay: Inhibition of CYP2D6; format: ADME
[12] = AUCall in rat; format: ADME, organism-based; details: plasma
[13] = Intrinsic clearance in rat microsomes; format: ADME, Microsome
Cytochrome P450 1A2 = biological target: T3, Cytochrome P450 1A2 (Homo sapiens, UniProt P05177); assay: Inhibition of CYP1A2; format: ADME
T3 sequence (P05177 whole entry): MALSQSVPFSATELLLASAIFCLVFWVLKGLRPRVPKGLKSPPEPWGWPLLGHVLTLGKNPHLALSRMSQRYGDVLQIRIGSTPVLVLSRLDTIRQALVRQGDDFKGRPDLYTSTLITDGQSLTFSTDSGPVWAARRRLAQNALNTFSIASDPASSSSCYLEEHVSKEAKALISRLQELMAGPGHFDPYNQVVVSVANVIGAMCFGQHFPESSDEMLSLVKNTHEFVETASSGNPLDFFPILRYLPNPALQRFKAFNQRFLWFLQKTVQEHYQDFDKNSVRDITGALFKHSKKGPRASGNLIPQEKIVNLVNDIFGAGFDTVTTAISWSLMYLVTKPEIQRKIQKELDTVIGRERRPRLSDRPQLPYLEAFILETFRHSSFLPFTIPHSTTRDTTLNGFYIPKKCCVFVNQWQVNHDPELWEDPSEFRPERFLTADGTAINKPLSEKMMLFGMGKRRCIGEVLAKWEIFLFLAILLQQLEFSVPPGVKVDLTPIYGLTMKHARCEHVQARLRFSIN

Cytochrome P450 2C9 = Cytochrome P450 2C9 (Homo sapiens, UniProt P11712); assay: Inhibition of CYP2C9; format: ADME
[14] = Permeability from basolateral to apical side of Caco-2 cell membrane; format: ADME, cell-based; details: human, read-out: permeability
[15] = biological target: Prostaglandin E2 receptor EP2 subtype (Homo sapiens, UniProt P43116); assay: Binding affinity at prostanoid EP2 receptor
Thromboxane A2 receptor = biological target: T4, Thromboxane A2 receptor (Homo sapiens, UniProt P21731); assay: Binding affinity at prostanoid TP receptor
T4 sequence (P21731 whole entry): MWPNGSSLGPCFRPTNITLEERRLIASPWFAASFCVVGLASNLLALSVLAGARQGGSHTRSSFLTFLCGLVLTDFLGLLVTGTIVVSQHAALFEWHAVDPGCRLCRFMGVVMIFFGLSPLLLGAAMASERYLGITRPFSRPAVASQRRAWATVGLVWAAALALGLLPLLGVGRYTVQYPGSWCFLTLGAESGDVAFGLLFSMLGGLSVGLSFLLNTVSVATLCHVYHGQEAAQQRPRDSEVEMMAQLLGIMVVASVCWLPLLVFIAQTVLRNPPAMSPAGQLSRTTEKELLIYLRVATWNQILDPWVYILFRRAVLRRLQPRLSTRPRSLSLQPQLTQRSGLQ

Sequence of Cytochrome P450 2D6 (P10635 whole entry): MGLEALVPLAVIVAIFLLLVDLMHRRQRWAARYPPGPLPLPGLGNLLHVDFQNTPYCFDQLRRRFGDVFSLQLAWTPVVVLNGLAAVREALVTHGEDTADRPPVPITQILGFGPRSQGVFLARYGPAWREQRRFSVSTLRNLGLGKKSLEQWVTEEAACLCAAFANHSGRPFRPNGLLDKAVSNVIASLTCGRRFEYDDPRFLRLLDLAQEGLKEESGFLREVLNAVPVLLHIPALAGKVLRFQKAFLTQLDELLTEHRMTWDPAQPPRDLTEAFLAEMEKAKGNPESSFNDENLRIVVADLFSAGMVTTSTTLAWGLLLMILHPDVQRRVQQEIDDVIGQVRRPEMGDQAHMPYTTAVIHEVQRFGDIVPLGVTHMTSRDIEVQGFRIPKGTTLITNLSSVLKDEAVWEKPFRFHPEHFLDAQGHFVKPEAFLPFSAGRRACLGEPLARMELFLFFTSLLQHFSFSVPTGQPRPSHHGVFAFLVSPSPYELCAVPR
Sequence of Cytochrome P450 2C19 (P33261 whole entry): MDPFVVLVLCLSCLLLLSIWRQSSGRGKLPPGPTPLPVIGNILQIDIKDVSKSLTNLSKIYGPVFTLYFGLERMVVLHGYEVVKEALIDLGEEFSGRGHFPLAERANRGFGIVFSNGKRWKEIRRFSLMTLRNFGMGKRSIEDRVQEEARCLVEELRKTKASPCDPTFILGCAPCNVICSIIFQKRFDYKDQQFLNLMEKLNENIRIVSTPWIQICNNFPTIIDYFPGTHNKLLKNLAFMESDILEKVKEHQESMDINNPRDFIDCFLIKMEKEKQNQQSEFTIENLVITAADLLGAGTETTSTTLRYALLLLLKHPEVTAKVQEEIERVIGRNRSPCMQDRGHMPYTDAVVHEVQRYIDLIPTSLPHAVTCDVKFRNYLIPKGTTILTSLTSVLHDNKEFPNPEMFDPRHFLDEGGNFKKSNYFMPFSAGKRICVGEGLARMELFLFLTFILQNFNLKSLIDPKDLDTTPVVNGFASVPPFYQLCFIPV
Sequence of Cytochrome P450 3A4 (P08684 whole entry): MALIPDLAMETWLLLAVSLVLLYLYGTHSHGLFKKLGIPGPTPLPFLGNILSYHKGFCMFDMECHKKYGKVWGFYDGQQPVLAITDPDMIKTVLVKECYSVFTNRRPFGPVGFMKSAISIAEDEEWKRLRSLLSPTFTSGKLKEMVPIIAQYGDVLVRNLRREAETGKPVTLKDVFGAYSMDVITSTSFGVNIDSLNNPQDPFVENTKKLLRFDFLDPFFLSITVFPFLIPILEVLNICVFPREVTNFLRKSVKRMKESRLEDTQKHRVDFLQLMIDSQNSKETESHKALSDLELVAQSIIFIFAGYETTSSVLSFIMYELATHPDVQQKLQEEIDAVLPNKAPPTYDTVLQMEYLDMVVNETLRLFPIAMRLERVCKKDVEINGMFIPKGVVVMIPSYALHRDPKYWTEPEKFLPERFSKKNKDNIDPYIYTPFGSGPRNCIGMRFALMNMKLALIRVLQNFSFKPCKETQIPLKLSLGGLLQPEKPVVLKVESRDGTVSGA
Sequence of Cytochrome P450 2C9 (P11712 whole entry): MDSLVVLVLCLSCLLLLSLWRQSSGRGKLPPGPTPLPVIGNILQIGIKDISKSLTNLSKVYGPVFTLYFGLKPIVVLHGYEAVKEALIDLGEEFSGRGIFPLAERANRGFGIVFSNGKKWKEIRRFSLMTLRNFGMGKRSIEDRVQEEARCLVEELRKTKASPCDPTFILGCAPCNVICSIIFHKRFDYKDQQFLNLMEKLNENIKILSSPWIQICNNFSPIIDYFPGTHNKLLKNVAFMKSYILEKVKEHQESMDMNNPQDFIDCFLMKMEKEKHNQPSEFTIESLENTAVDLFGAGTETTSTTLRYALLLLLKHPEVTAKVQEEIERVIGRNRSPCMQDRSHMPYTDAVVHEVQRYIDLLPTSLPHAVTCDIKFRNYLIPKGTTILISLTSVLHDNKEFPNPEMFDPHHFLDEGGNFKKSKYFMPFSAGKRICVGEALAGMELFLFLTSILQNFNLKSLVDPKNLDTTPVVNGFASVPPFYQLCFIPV
Sequence of Prostaglandin E2 receptor EP2 subtype (P43116 whole entry): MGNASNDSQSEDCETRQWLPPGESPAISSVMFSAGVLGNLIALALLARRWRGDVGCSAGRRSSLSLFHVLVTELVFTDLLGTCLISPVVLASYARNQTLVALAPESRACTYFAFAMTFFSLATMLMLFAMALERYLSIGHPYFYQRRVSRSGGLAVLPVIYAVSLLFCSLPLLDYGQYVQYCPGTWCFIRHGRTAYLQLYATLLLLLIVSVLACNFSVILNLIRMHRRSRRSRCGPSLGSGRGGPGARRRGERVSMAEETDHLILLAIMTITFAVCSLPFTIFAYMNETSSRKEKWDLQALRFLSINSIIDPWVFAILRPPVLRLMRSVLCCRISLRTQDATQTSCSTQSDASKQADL

SMILES | Ki [1] [nM] | Ki [2] [nM] | IC50 (Eosinophil [3]) [nM] | also measured
OCCOc1ccc(Cl)cc1C1CCCCC1 | > 10000 | > 10000 |  | 
O=C(O)COc1ccc(Br)cc1C1CCCCC1 | 83 | 5900 | 448 | 
O=C(O)CCOc1ccc(Cl)cc1C1CCCCC1 | 799 | > 10000 |  | 
Cc1ccc(OCC(=O)O)c(C2CCCCC2)c1 | 353 | > 10000 |  | 
CS(=O)(=O)NC(=O)COc1ccc(Cl)cc1C1CCCCC1 | > 10000 | > 10000 |  | 
C[C@H](Oc1ccc(Cl)cc1C1CCCCC1)C(=O)O |  | 4490 |  | 
O=C(O)CCCOc1ccc(Cl)cc1C1CCCCC1 | 1990 | > 10000 |  | 
COC(=O)COc1ccc(Cl)cc1C1CCCCC1 | 3280 | 8900 |  | 
Cc1cc(Cl)ccc1OCC(=O)O [METAXON] | > 10000 | > 10000 |  | 
O=C(O)COc1ccc(-c2ccc(F)cc2)cc1C1CCCCC1 | 99 | 6400 |  | 
C[C@@H](Oc1ccc(Cl)cc1C1CCCCC1)C(=O)O |  | > 10000 |  | 
CC1(c2cc(Cl)ccc2OCC(=O)O)CCCCC1 | 90 | 1210 | 451 | 
C=CCc1cc(Cl)ccc1OCC(=O)O | 5130 | 4740 |  | 
O=C(O)COc1ccc(C(F)(F)F)cc1C1CCCCC1 | 20 | > 10000 | 172 | 
O=C(O)COc1ccc(Cl)cc1C1CCCCCC1 | 59 | 1880 | 248 | Activity (Eosinophil [4]): inactive; clearance [5]: 7.3 mL/min/kg; Papp A→B [6]: 8.4 ×10⁻⁶ cm/s; bioavailability [7]: 58%; IC50 (Cytochrome P450 3A4): > 10000 nM; IC50 (Cytochrome P450 2C19): > 10000 nM; half-life [8]: 1.18 h; Vd [9]: 0.52 L/kg; microsomal CLint [10]: 109 µL/min/mg; Cmax [11]: 4.7 µM; IC50 (Cytochrome P450 2D6): > 10000 nM; AUC [12]: 11.6 µM·h; microsomal CLint [13]: 205 µL/min/mg; IC50 (Cytochrome P450 1A2): > 10000 nM; IC50 (Cytochrome P450 2C9): > 10000 nM; Papp B→A [14]: 21.4 ×10⁻⁶ cm/s
O=C(O)COc1ccc(F)cc1C1CCCCC1 | 446 | > 10000 |  | 
Clc1ccc(OCc2nnn[nH]2)c(C2CCCCC2)c1 | > 10000 | > 10000 |  | 
O=C(O)COc1ccc(Cl)cc1C1CCCC1 | 150 | 4800 | 1010 | 
N#Cc1ccc(OCC(=O)O)c(C2CCCCC2)c1 | 230 | > 10000 | 52 | 
O=C(O)COc1ccc(Cl)cc1C1CCCCC1 | 154 | 7600 | 93 | Ki [15]: 3000 nM; Ki (Thromboxane A2 receptor): > 10000 nM
O=C(O)COc1ccccc1C1CCCCC1 | 311 | > 10000 |  | 
COc1ccc(OCC(=O)O)c(C2CCCCC2)c1 | 782 | > 10000 |  | 
